Numbered stars: 1 amine (or outer) side, 2 acyl side, 3 side chain; on linkers, the order of the positions; unused ones are H or OH. Bridge positions count the residues as written; N and C are the ends. Square brackets hold non-standard residues; d marks the D form. Peptide text beside a SMILES is read from it. X1 = CC(C)CCCCCCCCC[C@H](CC(=O)[*:1])O[*:2]
Tested on: Trichophyton mentagrophytes
Assay type: cell-based

CC(C)CCCCCCCCC[C@@H]1CC(=O)N[C@@H](CCC(=O)O)C(=O)N[C@@H](CC(C)C)C(=O)N[C@H](CC(C)C)C(=O)N[C@@H](C(C)C)C(=O)N[C@@H](CC(=O)O)C(=O)N[C@H](CC(C)C)C(=O)N[C@@H](CC(C)C)C(=O)O1 [surfactin] (EL[dL]VD[dL]L; linker N-C via X1)
antifungal activity (growth inhibition of test microorganism): weaker than iturin A, but slight inhibitory activities
